According to patent US6908919B2, “Substituted polycyclic aryl and heteroaryl pyrazinones useful for selective inhibition of the coagulation cascade” (Pharmacia Corporation, priority 1999, dated 2005):
Read-outs that look alike come from different tables or passages of the source.

Experiments:
[1] = molecular target: T1, recombinant soluble tissue factor and recombinant human factor VIIa (TF-VIIa) (Homo sapiens, UniProt P08709); experiment: TF-VIIa Assay; assay type: biochemical; details: for % Inhibition TF-VIIa (30 µM): at 30 µM inhibitor; for IC50: read-out: IC50 TF-VIIa
T1 construct: conversion of coagulation factor VII to VIIa by Xa; purchased American Diagnostica, Greenwich Conn; host or cells: VIIa purchased; soluble TF made in house in E. coli

Human factor Xa = Human factor Xa (Homo sapiens, UniProt P00742); experiment: Xa Assay; assay type: biochemical; parameters: purchased Enzyme Research Laboratories, South Bend Ind
Chain of Human factor Xa (P00742 41-179 limits assumed): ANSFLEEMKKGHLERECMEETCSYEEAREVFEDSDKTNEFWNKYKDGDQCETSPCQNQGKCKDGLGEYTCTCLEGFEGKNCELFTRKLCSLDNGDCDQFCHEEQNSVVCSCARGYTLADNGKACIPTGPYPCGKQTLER
Chain of Human factor Xa (P00742 235-488 limits assumed): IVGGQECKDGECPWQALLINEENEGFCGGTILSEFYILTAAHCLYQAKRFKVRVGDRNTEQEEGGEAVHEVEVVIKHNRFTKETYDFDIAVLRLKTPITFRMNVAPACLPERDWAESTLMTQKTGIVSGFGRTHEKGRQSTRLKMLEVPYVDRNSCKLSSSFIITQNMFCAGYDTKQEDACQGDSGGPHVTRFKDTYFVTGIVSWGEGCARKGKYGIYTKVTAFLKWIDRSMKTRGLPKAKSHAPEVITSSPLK

T1 sequence (P08709 61-212 limits assumed): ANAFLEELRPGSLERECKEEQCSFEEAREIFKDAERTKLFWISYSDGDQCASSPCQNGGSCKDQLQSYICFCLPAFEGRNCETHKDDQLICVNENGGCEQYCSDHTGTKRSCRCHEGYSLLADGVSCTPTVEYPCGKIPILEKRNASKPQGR
T1 sequence (P08709 213-466 limits assumed): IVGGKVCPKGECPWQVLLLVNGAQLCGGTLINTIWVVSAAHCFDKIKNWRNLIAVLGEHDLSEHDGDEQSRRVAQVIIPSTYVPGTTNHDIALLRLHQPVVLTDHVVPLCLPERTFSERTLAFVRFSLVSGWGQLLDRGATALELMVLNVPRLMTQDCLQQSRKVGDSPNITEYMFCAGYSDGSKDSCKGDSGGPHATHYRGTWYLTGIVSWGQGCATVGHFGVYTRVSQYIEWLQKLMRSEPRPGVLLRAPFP
T1 sequence (P13726 33-251 partner limits assumed): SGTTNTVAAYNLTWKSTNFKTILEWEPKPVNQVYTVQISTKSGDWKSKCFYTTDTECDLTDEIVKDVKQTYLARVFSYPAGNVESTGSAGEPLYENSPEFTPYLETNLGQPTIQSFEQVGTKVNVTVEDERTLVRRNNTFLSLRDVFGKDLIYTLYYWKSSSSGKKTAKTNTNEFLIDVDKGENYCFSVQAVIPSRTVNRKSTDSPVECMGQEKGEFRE

O=C(Cn1c(-c2cccc(Cl)c2)c(Cl)nc(NCCc2cccc(Cl)c2)c1=O)NCCc1cccnc1 [Example E-0080]
% Inhibition TF-VIIa (100 µM) ([1]; inhibitor at 100 µM): 1% | % Inhibition Factor Xa (100 µM) (Human factor Xa; inhibitor at 100 µM): 4%

O=C(Cn1c(-c2ccc(Cl)cc2)c(Cl)nc(NCCc2cccc(Cl)c2)c1=O)NCCc1ccncc1 [Example E-0019]
% Inhibition TF-VIIa (100 µM) ([1]; inhibitor at 100 µM): 0% | % Inhibition Factor Xa (100 µM) (Human factor Xa; inhibitor at 100 µM): 0%

O=C(Cn1c(-c2ccc(-c3ccccc3)cc2)c(Cl)nc(NCc2ccccc2)c1=O)NCCc1ccncc1 [Example E-0049]
% Inhibition TF-VIIa (100 µM) [1]: 2% | % Inhibition Factor Xa (100 µM) (Human factor Xa): 0%

N=C(N)c1ccc(CNC(=O)C(Cc2ccccc2)n2c(-c3ccccc3)c(Cl)nc(NC3CCC3)c2=O)cc1 (stereo not drawn) [Example 1517-08]
% Inhibition TF-VIIa (30 µM) [1]: 43% | % Inhibition Factor Xa (30 µM) (Human factor Xa; at 30 µM inhibitor): 0%

O=C(Cn1c(-c2ccccc2)c(Cl)nc(NCc2ccncc2)c1=O)NCCc1ccncc1 [Example E-0016]
% Inhibition TF-VIIa (100 µM) ([1]; inhibitor at 100 µM): 0% | % Inhibition Factor Xa (100 µM) (Human factor Xa; inhibitor at 100 µM): 0%

N=C(N)c1ccc(C(=O)NCCn2c(-c3cccc(N)c3)c(Cl)nc(NC3CCC3)c2=O)cc1 [Example 136]
IC50 [1]: 10700 nM | inhibition at 100 µM (Human factor Xa; at 100 μM inhibitor): 15%

O=C(Cn1c(CCc2ccccc2)c(Cl)nc(NCCc2ccccc2)c1=O)NCCc1ccncc1 [Example E-0066]
% Inhibition TF-VIIa (100 µM) ([1]; inhibitor at 100 µM): 0% | % Inhibition Factor Xa (100 µM) (Human factor Xa; inhibitor at 100 µM): 0%

N=C(N)c1ccc(CNC(=O)Cn2c(-c3ccc(Cl)cc3)c(Cl)nc(NCCN3CCOCC3)c2=O)cc1 [1471-20]
% Inhibition TF-VIIa (30 µM) [1]: 42% | % Inhibition Factor Xa (30 µM) (Human factor Xa; at 30 µM inhibitor): 34%

O=C(Cn1c(-c2ccc3c(c2)OCO3)c(Cl)nc(NCCc2ccc(Cl)cc2)c1=O)NCCc1ccncc1 [Example E-0044]
% Inhibition TF-VIIa (100 µM) ([1]; inhibitor at 100 µM): 0% | % Inhibition Factor Xa (100 µM) (Human factor Xa; inhibitor at 100 µM): 0%

CC(C)Nc1nc(Cl)c(-c2cc(N)cc(C(=O)NCc3ccc4ccccc4c3)c2)n(CC(=O)NCc2ccc(C(=N)N)cc2)c1=O [Example 128-23]
IC50 [1]: 33.7 nM

N=C(N)c1ccc(CNC(=O)Cn2c(-c3ccccc3)c(Cl)nc(NCc3ccc(Cl)cc3Cl)c2=O)cc1 [1507-22]
% Inhibition TF-VIIa (30 µM) [1]: 45%

CC(C)Nc1nc(Cl)c(-c2cc(N)cc(C(=O)NCC(c3ccccc3)c3ccccc3)c2)n(CC(=O)NCc2ccc(C(=N)N)cc2)c1=O [Example 128-22]
IC50 [1]: 52 nM

N=C(N)c1ccc(CNC(=O)Cn2c(-c3ccccc3)c(Cl)nc(NC(Cc3ccccc3)c3ccccc3)c2=O)cc1 (stereo not drawn) [1507-07]
% Inhibition TF-VIIa (30 µM) [1]: 25%

CC(C)Nc1nc(Cl)c(-c2cc(N)cc(C(=O)O)c2)n(CC(=O)NCc2ccc(C(=N)N)cc2)c1=O [Example 123]
IC50 [1]: 20 nM

CC(C)Nc1nc(Cl)c(-c2cc(N)cc(C(=O)NC3CCc4ccccc4C3)c2)n(CC(=O)NCc2ccc(C(=N)N)cc2)c1=O (stereo not drawn) [Example 128-24]
IC50 [1]: 18.7 nM

CC(C)Nc1nc(Cl)c(-c2cc(N)cc(C(=O)NCc3ccccc3Cl)c2)n(CC(=O)NCc2ccc(C(=N)N)cc2)c1=O [Example 128-10]
IC50 [1]: 9 nM

C[C@@H](Nc1nc(Cl)c(-c2cccc(N)c2)n(CC(=O)NCc2ccc(C(=N)N)cc2)c1=O)C(=O)O [Example 134]
IC50 [1]: 51 nM

CC(C)Nc1nc(Cl)c(-c2cc(N)cc(C(=O)NCCCc3ccccc3)c2)n(CC(=O)NCc2ccc(C(=N)N)cc2)c1=O [Example 128-21]
IC50 [1]: 37 nM

N=C(N)c1ccc(CNC(=O)Cn2c(-c3ccccc3)c(Cl)nc(NCc3cccc4ccccc34)c2=O)cc1 [1507-28]
% Inhibition TF-VIIa (30 µM) [1]: 38%

Cc1cccc(-c2c(Cl)nc(NCCc3ccccc3)c(=O)n2CC(=O)NCc2ccc(C(=N)N)cc2)c1 [Example 81]
% Inhibition Factor Xa (30 µM) (Human factor Xa; at 30 µM inhibitor): 33% @ 30

Nc1n[nH]c2cc(CNC(=O)Cn3c(-c4ccccc4)cnc(NCCc4ccccc4)c3=O)ccc12 [Example 39]
% Inhibition Factor Xa (30 µM) (Human factor Xa; at 30 µM inhibitor): 0%

C[C@H](C(=O)NCc1ccc(C(=N)N)cc1)n1c(-c2ccccc2)c(Cl)nc(NCCc2ccccc2)c1=O [Example 1517-17]
% Inhibition Factor Xa (30 µM) (Human factor Xa; at 30 µM): 0%

N=C(N)c1ccc(CNC(=O)Cn2c(-c3ccccc3)c(Cl)nc(NCC3COc4ccccc4O3)c2=O)cc1 (stereo not drawn) [1512-01]
% Inhibition Factor Xa (30 µM) (Human factor Xa; at 30 µM inhibitor): 4%

N=C(N)c1ccc(CNC(=O)Cn2c(-c3ccsc3)c(Cl)nc(NC3CCC3)c2=O)cc1 [Example 1517-07]
% Inhibition Factor Xa (30 µM) (Human factor Xa; at 30 µM inhibitor): 0%

CCCCCNc1nc(Cl)c(-c2ccccc2)n(CC(=O)NCc2ccc(C(=N)N)cc2)c1=O [Example 1517-48]
% Inhibition Factor Xa (30 µM) (Human factor Xa; at 30 µM): 0%

N=C(N)c1ccc(CNC(=O)Cn2c(-c3ccc4c(c3)OCO4)c(Cl)nc(NCc3ccncc3)c2=O)cc1 [1471-43]
% Inhibition Factor Xa (30 µM) (Human factor Xa; at 30 µM inhibitor): 18%

N=C(N)c1ccc(CNC(=O)Cn2c(-c3ccc(C(F)(F)F)cc3)c(Cl)nc(NC3CCC3)c2=O)cc1 [1515-20]
% Inhibition TF-VIIa (30 µM) [1]: 32%
